In EP4488279A1, “SUBSTITUTED HEXAHYDRO-2H-PYRAZINO[1,2-A]PYRAZIN-1(6H)-ONE DERIVATIVES AS ACTIVATORS OF HUMAN CASEINOLYTIC PROTEASE P (HSCLPP)” (Centro Atlantico del Medicamento S.A (Ceamed, S.A), priority 2023, dated 2025):

What was measured:
Yeast + HsCIpP = experiment: Yeast growth inhibition screen, yeast expressing human ClpP; assay type: cell-based; settings: Saccharomyces cerevisiae, 24 h, read-out: Yeast + HsCIpP GI50
From the text: This technique allows to directionally assemble several DNA fragments into one single DNA piece. It is based on plasmid libraries that share the same DNA backbone but differ in the type of the insert. The assembly of the final cassette is based on the "Golden Gate Cloning" method. Human CLPP gene sequence (codon-optimized for yeast translation) was amplified with well-designed primers from a plasmid kindly provided by Dr. Michael David Tyers (University of Montreal). Once amplified, a MoClo reaction was performed to obtain the final integrative cassette. This cassette was composed as follows: • Type 1: ConLS 3' connector. • Type 2: TDH3 gene promoter (strong and constitutive expression). • Type 3: Amplified human CLPP gene. • Type 4: ADH1 gene terminator. • Type 5: ConR1 5' connector. • Type 6: LEU2 gene as selectable marker for yeast. • Type 7: 3' HO gene homology sequence for yeast integration. • Type 8a: KanR-ColE1 sequence for bacterial amplification and antibiotic resistance. • Type 8b: 5' HO gene homology sequence for yeast integration.
Digestion patterns with several restriction enzymes were carried out to confirm the success of the MoClo system. An extra restriction enzyme reaction (Notl) was performed to linearize the DNA fragment and deplete the bacterial part.
(§1) These cells contain mutants in YRS1, YRR1, PDR1 and PDR3 genes, which are involved in polydrug and pleiotropic resistance networks.
Yeast cells were transformed with the linearized cassette and transformant colonies were selected on minimum media without leucine. Independent clones were checked by PCR and positive ones were stored at -80 °C until use.
(§2) The yeast (both HsCpIP+ and HsCIpP-) are incubated in petri dishes with YPD (Yeast extract peptone dextrose) at 25 °C overnight, after which a colony is isolated, suspended in a flask with fresh YPD and incubating again under the same conditions but with agitation. […] 100 µl of this solution was then placed into the appropriated wells of a standard 96-well plate. Stock solutions (DMSO, 10 mM) of the compounds to be tested are diluted in YPD to 2X of their final concentrations to be tested, and 100 µl added to the appropriate wells. 100 µl of YPD was added to wells designated as the negative control wells, while ONC206 (0.5 µM) was used as the positive control. Once all compounds were added to the plate, an initial T = 0 absorbance value was recorded at 600 Nm. The plate was then incubated at 25 °C with gentle shaking for 24 h. The plates can either be read at multiple time points using a TECAN Spark® Multimode Microplate Reader, or at the end of the experiment using a standard spectrophotometer.
(§3) Table 2: Growth inhibition (GI50) values for compounds of the present invention in yeast containing HsCIpP, and yeast without HsCIpP.

Yeast - HsCIpP = experiment: Yeast growth inhibition screen, yeast without human ClpP (selectivity control); assay type: cell-based; settings: Saccharomyces cerevisiae; yeast without HsCIpP, 24 h at 25 °C, absorbance at 600 nm; read-out: Yeast - HsCIpP GI50
Description: as §1, §2, §3

4T1 = experiment: MTT cell viability assay, 4T1; assay type: cell-based; settings: Mus musculus; 4T1 cells, 48 H, MTT, average of at least two independent experiments; read-out: IC50 4T1 48 H
Description: This a mouse epithelial breast cancer cell line classified as being triple negative and mimics human breast cancer; stage IV.
Cell viability was assayed by measuring the mitochondrial reduction of the tetrazolium salt 3-(4,5-methyltiazol-2yl)-2,5diphenyl-tetrazolium bromide] (MTT) (Applichen; A2231,0010) [Mosmann T. J Immunol Methods. […] Oncogene. […] Cells were seeded at a density according to their exponential growth phase (normally 1000 to 5000/well). The cells were cultured at 37 °C in the dark in air containing 5% CO2. After 24h either vehicle (0.05% DMSO), or drug, was added to culture medium at the indicated concentrations (10 to 0,01microM). […] The medium was then removed, and the precipitated formazan was solubilized by the addition of DMSO (200 µL).

MDA-MB-231 = experiment: MTT cell viability assay, MDA-MB-231; assay type: cell-based; settings: Homo sapiens, MDA-MB-231 cells, 72 H, average of at least two independent experiments
Description: This a human breast cancer cell line derived from a metastatic site from a person.
(§4) Cell viability was assayed by measuring the mitochondrial reduction of the tetrazolium salt 3-(4,5-methyltiazol-2yl)-2,5diphenyl-tetrazolium bromide] (MTT) (Applichen; A2231,0010) [Mosmann T. J Immunol Methods. […] Oncogene. […] Cells were seeded at a density according to their exponential growth phase (normally 1000 to 5000/well). The cells were cultured at 37 °C in the dark in air containing 5% CO2. After 24h either vehicle (0.05% DMSO), or drug, was added to culture medium at the indicated concentrations (10 to 0,01microM). After another 72 h, MTT (0.3 mg/ml) was added to cells, followed by incubation for 2-4h at 37 °C in the dark. The medium was then removed, and the precipitated formazan was solubilized by the addition of DMSO (200 µL).

U2 OS = experiment: MTT cell viability assay, U2 OS; assay type: cell-based; settings: Homo sapiens, U2OS, U2 OS cells, 72 H, average of at least two independent experiments
Description: U2 OS [American Type Culture Collection (ATCC) reference number HTB-96]. This is a human bone cancer (a moderately differentiated sarcoma) cell derived from an osteosarcoma patient.
as §4

DU-145 = experiment: MTT cell viability assay, DU-145; assay type: cell-based; settings: Homo sapiens, DU-145 cells, 72 H, average of at least two independent experiments
Description: This a human prostate cancer cell line derived from a metastatic site (brain) of a person.
as §4

PANC1 = experiment: MTT cell viability assay, PANC1; assay type: cell-based; settings: Homo sapiens, PANC-1, PANC1 cells, 72 H, average of at least two independent experiments
Description: This a human cancer cell line derived from the pancreas of a person.
as §4

MDA-MB-231 cells = experiment: cells
Description: In order to measure the cell population at the time zero (Tz) a plate of cells was stained with SRB 24 hours after seeding. The cell monolayers are fixed with cold 5% (w/v) trichloroacetic acid for 60 minutes at 4°C. The excess of trichloroacetic acid is removed by washing five times with distilled water. Sulforhodamine B (SRB) solution [50 µL at 0.4%(w/v) in 1% acetic acid] is added to each well and plates are incubated for 8 minutes at room temperature. The excess dye is removed by washing five times with 1% (v/v) acetic acid. The bound stain is subsequently solubilized with (100 µL) 10 mM trizma base and the absorbance is read on automated plate reader at a wavelength of 550 nm.
Compounds at various concentrations were added to an identical cell-seeded (non-treated) plate and incubated at 37°C (5% CO2) for an additional […]. Cells were fixed and stained following the same protocol. The measurement of the cell population after 72 hours in the presence of the drug is (Ti). Several wells in the same plate were treated with the control vehicle.
Using the absorbance measurements, time zero (Tz), control growth (C), and test growth in the present of the compound (Ti) the percentage growth inhibition is calculated as: • [(Ti-Tz)/(C-Tz)] x 100 for concentrations for which Ti >/= Tz • [(Ti-Tz)/Tz] x 100 for concentrations for which Ti <Tz
These values were determined using GraphPad software v5 (San Diego, CA).

Compound | GI50 (Yeast + HsCIpP) [nM] | GI50 (Yeast - HsCIpP) [µM] | IC50 (4T1) [nM] | IC50 (MDA-MB-231) [nM] | IC50 (U2 OS) [nM] | IC50 (DU-145) [nM] | IC50 (PANC1) [nM] | GI50 (MDA-MB-231 cells; Homo sapiens, MDA-MB-231, 72 h) [nM] | CC50 (MDA-MB-231 cells; Homo sapiens, MDA-MB-231, 72 h, read-out: LC50) [µM] | Result (MDA-MB-231 cells; MDA-MB-231 72 H, SRB, cytostatic or not) | TGI50 (MDA-MB-231 cells; MDA-MB-231 72 H, SRB, total growth inhibition concentration) [µM]
N#Cc1cccc(CN2CCN3CCN(Cc4ccc(F)cc4)C(=O)C3C2)c1 (stereo not shown) [Compound 1] | 150 | > 10 | 103 | 120 | 220 | 200 | 195 |  |  |  | 
N#Cc1cccc(CN2CCN3CCN(Cc4cccc(Cl)c4)C(=O)C3C2)c1 (stereo not shown) [Compound 2] | 120 | > 10 | 165 | 145 | 250 | 250 | 140 |  |  |  | 
N#Cc1cccc(CN2CCN3CCN(Cc4ccc(Cl)cc4)C(=O)C3C2)c1 (stereo not shown) [Compound 3] | 65 | > 10 | < 100 | < 100 | < 100 | < 100 | < 100 | < 100 | > 10 | Cytostatic | >10
O=C1C2CN(Cc3cccc(F)c3)CCN2CCN1Cc1ccc(F)cc1 (stereo not shown) [Compound 5] | 140 | > 10 | 190 | 240 | 400 | 300 | 250 |  |  |  | 
O=C1C2CN(Cc3cccc(F)c3)CCN2CCN1Cc1ccc(Cl)cc1 (stereo not shown) [Compound 6] | 60 | > 10 | 150 | 190 | 300 | 250 | 190 |  |  |  | 
O=C1C2CN(CCCCC(F)(F)F)CCN2CCN1Cc1ccc(F)cc1 (stereo not shown) [Compound 7] | 2050 | > 10 | 340 | 430 | 500 | 500 | 330 |  |  |  | 
O=C1C2CN(CCCCC(F)(F)F)CCN2CCN1Cc1ccc(C(F)(F)F)cc1 (stereo not shown) [Compound 8] | 1650 | > 10 | 310 | 400 | 2000 |  | 350 |  |  |  | 
